Measurements published in US7994326B2 (Northwestern University, priority 2003, dated 2011).
pIC50, pKi: −log10 of the molar value. Where two headings read alike, the source gives them in different places.

How the values were obtained:
Assay type in all cases: biochemical
rat nNOS = biological target: T1, rat nNOS (Rattus norvegicus, UniProt P29476); assay: NOS enzyme inhibitory assay (hemoglobin capture), nNOS; conditions: for pIC50: rat nNOS, 10 μM L-arginine
T1 construct: made in house; host or cells: E. coli (plasmid pCWnNOS)
Outline: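 Recombinant rat nNOS expressed in E. coli and purified by calmodulin-Sepharose and 2′,5′-ADP-Sepharose chromatography. NO production followed by hemoglobin capture; inhibition expressed as Ki, selectivity as ratio of Ki values.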

murine iNOS = biological target: T2, murine iNOS (Mus musculus, UniProt P29477); assay: NOS enzyme inhibitory assay (hemoglobin capture), iNOS; conditions: for pIC50: murine iNOS, 10 μM L-arginine
T2 construct: made in house; host or cells: E. coli (plasmid pCWiNOS)
Outline: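 Recombinant murine iNOS, overexpressed in E. coli from plasmid pCWiNOS (induced with 1 mM IPTG) and purified on a 2′,5′-ADP-Sepharose 4B column with elution by 10 mM 2′(3′)-AMP, 10 μM BH4 and 0.3 M NaCl, was used to test inhibitors. Nitric oxide production was followed with the hemoglobin capture assay, and IC50 values were determined.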

bovine eNOS = biological target: T3, bovine eNOS (Bos taurus, UniProt P29473); assay: NOS enzyme inhibitory assay (hemoglobin capture), eNOS; conditions: for pIC50: bovine eNOS, 10 μM L-arginine, * = no inhibition observed up to the concentration listed
T3 construct: made in house; host or cells: E. coli (plasmid Bov-eNOSpCW)
Experimental: All of the NOS isoforms used were recombinant enzymes overexpressed in E. coli from different sources. Nitric oxide formation from NOS was monitored by the hemoglobin capture assay as described in the literature.
Expression of bovine eNOS: An overnight culture of Bov-eNOSpCW was used to inoculate 0.5 liter (in a 2.8-liter Fernbach flask) of modified TB (20 g of yeast extract, 10 g of bacto-tryptone, 2.65 g of KH2PO4, 4.33 g of Na2HPO4 and 4 ml of glycerol per liter) containing ampicillin ([…]) and chloramphenicol ([…]). The cultures were grown to an OD600 of z0.8 at 22° C. (200 rpm) and induced with 0.5 mM IPTG. One hour before IPTG induction, d-aminolevulinic acid (0.5 mM final) was added and, at the time of IPTG induction, riboflavin ([…]) and ATP (1 mM final) were also added. After induction, the flasks were kept in the dark at 22° C. (200 rpm). The cells were harvested 48 h after induction, and the cell pellet was frozen at −80° C. until purification was carried out.
Purification of bovine eNOS. The purification was typically carried out with eNOS from 2 liters of E. coli culture. The eNOS protein was purified using a modification of the published protocol for nNOS (14). The cells were resuspended in buffer C [50 mM Tris-Cl, pH 7.8, 1 mM EDTA, 1 mM DTT, 10% glycerol (v/v), 150 mM NaCl, 0.1 mM phenylmethylsulfonyl fluoride, […]], lysed by pulsed sonication and then centrifuged to sediment the cell debris. The supernatant was applied to a 2′,5′-ADP Sepharose 4B column equilibrated in buffer D [50 mM Tris-Cl, pH 7.8, 0.1 mM EDTA, 0.1 mM dithiothreitol, 150 mM NaCl, 10% glycerol (v/v)]. The column was washed with 20 column volumes of buffer B and again with 20 column volumes of buffer B containing 600 mM NaCl. Finally, protein was eluted with buffer B containing 600 mM NaCl and 5 mM 2′-AMP. The fractions were screened for absorption in the Soret region (A400) and hemoprotein-containing fractions were pooled and concentrated (Centriprep 50, Amicon). Repeated dilution/concentration [50 mM Tris-Cl, pH 7.8, 0.1 mM EDTA, 0.1 mM dithiothreitol, 10% glycerol (vol/vol)] was used to reach a final concentration of 150 mM NaCl and commensurately reduce the 2′-AMP content. […] The purified eNOS is stored in the presence of 1 mM L-arginine.
eNOS washing: eNOS contains a significant amount of L-arginine, which will interfere with the enzyme assay. The L-arginine can be removed by several dilution and concentration steps using an Amico concentrator. The dilution buffer is 10 ml Tris-HCl 50 mM containing 0.1 mM EDTA, 400 mM NaCl, 10% glycerol and 1 mM beta-mercaptoethanol. The above dilution and concentration operation was repeated three times to give purified eNOS.
Nitric oxide formation from NOS was monitored by the hemoglobin capture assay as described previously. (Hevel, J. M.; Marletta, M. A. Nitric Oxide Synthase Assays. Methods Enzymol. 1994, […], 250-258).
The selectivity of an inhibitor is defined as the ratio of the respective Ki values.

[1] = Table 1b, ratio of Ki values eNOS/nNOS
[2] = Table 1b, ratio of Ki values iNOS/nNOS
[3] = Table 1a, apparent Ki calculated from IC50, Km […], read-out: calc. Ki nNOS
[4] = Table 1a, apparent Ki calculated from IC50, Km […], read-out: calc. Ki iNOS
[5] = Table 1a, apparent Ki calculated from IC50, Km 1.7 μM, read-out: calc. Ki eNOS

Structure (SMILES)	Selectivity n/e (rat nNOS; [1])	Selectivity n/i (rat nNOS; [2])	pKi (rat nNOS; Table 1b, read-out: Ki nNOS)	pKi (murine iNOS; Table 1b, read-out: Ki iNOS)	pKi (bovine eNOS; Table 1b, read-out: Ki eNOS)	Selectivity n/e (rat nNOS; Table 1a, Ki(eNOS)/Ki(nNOS))	Selectivity n/i (rat nNOS; Table 1a, Ki(iNOS)/Ki(nNOS))	pKi (rat nNOS; [3])	pIC50 (rat nNOS; Table 1a)	pKi (murine iNOS; [4])	pIC50 (murine iNOS; Table 1a)	pKi (bovine eNOS; [5])	pIC50 (bovine eNOS; Table 1a)
Cc1cc(N)nc(C[C@H]2CNC[C@H]2NCCNCc2ccc(Cl)cc2Cl)c1.Cl.Cl.Cl.Cl (racemic) [Compound P-61]	272	70	6.96	5.11	4.52	–	–	–	–	–	–	–	–
Cc1cc(N)nc(C[C@H]2CNC[C@H]2NC[C@H](C)NCc2ccc(Cl)cc2)c1.Cl.Cl.Cl.Cl (racemic) [Compound P-63]	294.4	90	6.87	4.91	4.40	–	–	–	–	–	–	–	–
Cc1cc(N)nc(CC2CNCC2NCCNCc2ccc(Cl)c(Cl)c2)c1.Cl.Cl.Cl.Cl (racemic) [Compound P-65]	153	57.4	6.38	4.62	4.20	–	–	–	–	–	–	–	–
Cc1cc(N)nc(C[C@H]2CNC[C@@H]2NCCNCc2ccc(Cl)cc2Cl)c1.Cl.Cl.Cl.Cl (racemic) [Compound P-66]	158	91.6	6.32	4.35	4.12	–	–	–	–	–	–	–	–
Cc1cc(N)nc(CC2CNCC2NCC(C)NCc2ccc(Cl)cc2)c1.Cl.Cl.Cl.Cl (racemic) [Compound P-68]	28	34.7	6.23	4.69	4.78	–	–	–	–	–	–	–	–
Cc1cc(N)nc(CC2CNCC2NCCNCCc2ccc(F)cc2)c1.Cl.Cl.Cl.Cl (racemic) [Compound P-70]	656.2	170.3	7.57	5.34	4.75	–	–	–	–	–	–	–	–
Cc1cc(N)nc(C[C@H]2CNC[C@@H]2NCCNCCc2ccc(F)cc2)c1.Cl.Cl.Cl.Cl (racemic) [Compound P-72]	370.5	189.9	6.92	4.65	4.36	–	–	–	–	–	–	–	–
Cc1cc(N)nc(CC2CNCC2N(C)CCN(C)CCc2cccc(F)c2)c1.Cl.Cl.Cl.Cl (racemic) [Compound P-74]	40.27	46.7	5.92	4.25	4.31	–	–	–	–	–	–	–	–
Cc1cc(N)nc(C[C@H]2CNC[C@H]2N(C)CCNCCc2cccc(F)c2)c1.Cl.Cl.Cl.Cl (racemic) [Compound P-75]	283.5	117.3	6.49	4.42	4.03	–	–	–	–	–	–	–	–
Cc1cc(N)nc(C[C@H]2CNC[C@H]2NC(=O)CNCCc2cccc(F)c2)c1.Cl.Cl.Cl (racemic) [Compound P-77, (±)-N-{cis-4-[(6-amino-4-methylpyridin-2-yl)methyl]pyrrolidin-3-yl}-2-(3-fluorophenethylamino)acetamide trihydrochloride]	500	26.4	7.28	5.85	4.59	–	–	–	–	–	–	–	–
Cc1cc(N)nc(C[C@@H]2CNC[C@@H]2NCCOCCc2cccc(F)c2)c1 (racemic) [Compound P-78, cis-6-{{(±)-4-[2-(3-fluorophenethoxy)ethylamino]pyrrolidin-3-yl}methyl}-4-methylpyridin-2-amine]	50	3.5	6.40	5.85	4.70	–	–	–	–	–	–	–	–
Cc1cc(N)nc(C[C@H]2CNC[C@H]2OCCNC(=O)Cc2cccc(F)c2)c1.Cl.Cl (racemic) [Compound P-80, (±)-N-{2-{cis-4-[(6-amino-4-methylpyridin-2-yl)methyl]pyrrolidin-3-yloxy}ethyl}-2-(3-fluorophenyl)acetamide dihydrochloride]	17	3.8	5.30	4.72	4.07	–	–	–	–	–	–	–	–
Cc1cc(N)nc(C[C@H]2CNC[C@@H]2OCCN)c1.Cl.Cl.Cl (racemic) [Compound P-81]	0.3	1.7	5.30	5.07	5.82	–	–	–	–	–	–	–	–
Cl.Cl.Cl.Cl.Nc1nc(CC2CNCC2NCCNCc2ccc(Cl)cc2)cs1 (racemic) [Compound P-82]	1.8	2	5.77	5.47	5.52	–	–	–	–	–	–	–	–
Nc1cccc(CC2CNCC2NC2CCN(Cc3ccccc3)C2)n1 (stereo not drawn) [Compound P-36]	–	–	–	–	–	32.20	66.39	5.48	4.54	3.65	3.31	3.97	3.13
Nc1cccc(CC2CNCC2NC2CCN(Cc3ccccc3)C2)n1 (stereo not drawn) [Compound P-37]	–	–	–	–	–	2.42	3.05	4.12	3.18	3.64	3.30	3.74	2.90
Nc1cccc(CC2CNCC2NC2CCN(Cc3ccccc3)C2)n1 (stereo not drawn) [Compound P-38]	–	–	–	–	–	66.19	155.05	5.56	4.62	3.37	3.03	3.74	2.90
Nc1cccc(CC2CNCC2NC2CCN(Cc3ccccc3)C2)n1 (stereo not drawn) [Compound P-39]	–	–	–	–	–	4.10	14.38	4.65	3.71	3.49	3.14	4.03	3.19
